We go through 7 compounds from US20090241222A1, “TANDEM REAPEAT DNA CONSTRUCTS PRODUCING PROTEINS THAT ATTACK PLANT PATHOGENIC VIRUSES, FUNGI, AND BACTERIA BY DISRUPTING TRANSCRIPTION FACTORS ESSENTIAL FOR REPLICATION THEREOF IN PLANTS” (priority 2008, published 2009).

“Also recorded” adds a separate entry of the source. Like-named read-outs stand apart in the source and are kept apart here.

In data set [1] the target is T1, recombinant MPS-1 (CCCC zinc finger) (Homo sapiens, UniProt P42677).
T1 construct: made in house
Kind of data set: Gel shift assay and radioactive Zn65 removal from recombinant MPS-1. It is filed as biochemical. An excerpt: MPS-1 is a ubiquitous tumor marker and cell growth stimulator and is described in detail in the inventors' U.S. Pat. No. 5,243,041. MPS-1 has one zinc finger domain of the type CCCC. […] This is detected by a change in the electrophoretic mobility of MPS-1 under non-denaturing conditions. These experiments indicate that picolinic acid and derivatives should remove zinc and denature various types of zinc finger, zinc ring proteins, or other types of ZF motifs whether known or heretofore undiscovered, including animal or plant viral proteins such as nucleocapsid proteins of retrovirus or the nucleocapsid proteins of Geminivirus. Furthermore, the inventors have determined that any chemical compound, whether known or heretofore undiscovered, that will remove the zinc (or other metal) and denature the proteins or that will form a ternary complex (protein-zinc-chelator) can be effective as an antiviral agent, with nontoxic effects, provided that the agent conforms with certain specific structural requirements.

Data set [2] deals with HIV-1, Hepatitis C and numerous other viruses as well as the host cells. Briefly: Fate of virus-infected host cells after treatment. The class given is cell-based. An excerpt: APOPTOSIS. Apoptosis is a morphological pattern of cell injury and an important mode of cell death (Robbins, Pathological Basis of Disease, 1999, 6th Ed). Apoptosis shares and overlaps common mechanisms with necrosis. […] This form of cell death is designed to eliminate defective, unwanted and damaged cells. For example, the inventors have shown that cells infected by Herpes Simplex Virus 1 (HSV; labialis) and HSV-2 genitalis are destroyed together with the host cells that they infected by apoptosis when exposed to pyridine carboxylates (Fernandez-Pol, Anticancer Res. 2002). […] Thus, the inventors believes that when host cells of animals or plants are infected by pathogenic viruses, unless the treatment is extremely quickly, the host cells and the virus will be destroyed. In fact, host cells defective, mutated, and reservoirs for the novo synthesis of viruses are unwanted host cells and must be eliminated in many instances to allow the survival of the organism.

For data set [3], the system named is Orobanche ramosa. Particulars: Arabidopsis thaliana pre-treated with FU; cited from earlier work.
For data set [4], the system named is HSV-1. Particulars: tissue culture and animals; cited from earlier work.
Data set [5] relates to HSV-2. Particulars: tissue culture and animals; cited from earlier work.
In data set [6] the test system is Arabidopsis thaliana. Particulars: in vivo; cited from earlier work.
In data set [7] the test system is Common ornamental plant cells infected by viruses. Briefly: Treatment of virus-infected ornamental plants. The note with it: viral strains not determined.
The test system of data set [8] is mammalian retroviruses. Particulars: millimolar concentrations; cited from earlier work.
The subject of data set [9] is Mammalian rotaviruses. The note with it: millimolar concentrations; cited from earlier work.
The subject of data set [10] is tomato spotted wilt virus. The note with it: tomato and tobacco plants; cited from earlier work.
Data set [11] concerns SV40 transformed BALB-3T3 cells. Particulars: cited from earlier work.
Data set [12] relates to Arabidopsis thaliana. Particulars: cited from earlier work.
Data set [13] concerns virally-transformed cells. The note with it: cited from earlier work.
The test system of data set [14] is NRK cells. The note with it: cells treated with picolinic acid; cited from earlier work.
Data set [15] relates to marker defense genes PR-1, PR-2 and PDF1.2. Particulars: dose-dependent and time dependent; cited from earlier work.
Data set [16] deals with rice. The note with it: in vivo; cited from earlier work.
For data set [17], the system named is cells (iron incorporation). The note with it: cited from earlier work.
In data set [18] the test system is normal cells (NRK, BALB 3T3). The note with it: cited from earlier work.

As for `CCCCc1ccc(C(=O)O)nc1` [fusaric acid, 5-butyl picolinic acid], in data set [1], the “removal of zinc (radioactive Zn65) from CCCC zinc finger of MPS-1” value is reported as “remove radioactive Zn65 from MPS-1; also recorded: remove zinc” and the “zinc dependent binding of recombinant MPS-1 to DNA (gel shift assays)” value was “inhibit the zinc dependent binding of recombinant MPS-1 to DNA”. Further, in [2], the “fate of viruses and host cells after treatment” value is listed as “Death by apoptosis”. In addition, in data set [3], the “germination of the angiosperm parasite” value is “inhibited”. The “efficacy against viral infection by HSV-1” value in data set [4] is reported as “effective”. For the same compound, the “efficacy against viral infection by HSV-2” value in [5] was “effective”. Moreover, in data set [6], the “concentration eliciting plant defense responses without toxic effects” value is listed as 100 nM; the “concentrations that reduced root growth and induced membrane hyperpolarization/depolarization” value was > 500 µM. In data set [7], the “outcome of treatment of virus-infected ornamental plants” value is on record as “positive results”.
For `O=C(O)CN(CCOCCOCCN(CC(=O)O)CC(=O)O)CC(=O)O` [EGTA], the “disintegration of viral membranes (release of reverse transcriptase)” value in data set [8] was “partial disintegration of viral membranes”. In addition, in [9], the “disintegration of viral membranes and release of Zinc Finger Proteins” value is on record as “partial disintegration of the viral membranes”.
For `NC(=O)c1ncn([C@@H]2O[C@H](CO)[C@@H](O)[C@H]2O)n1` [Virazole (Ribavirin)], in [10], the “use against tomato spotted wilt virus” value is “successfully used”.
As for `NC(=O)c1cccnc1` [Nicotinamide, reference compound], the “effect on cell growth or apoptosis” value in data set [11] (at 48 h) is on record as “no effect”.
On to `O=C(O)CN(CCN(CC(=O)O)CC(=O)O)CC(=O)O` [EDTA], for which, in [8], the “disintegration of viral membranes (release of reverse transcriptase)” value is on record as “partial disintegration of viral membranes”. Also, the “disintegration of viral membranes and release of Zinc Finger Proteins” value in [9] is reported as “partial disintegration of the viral membranes”.
As for `COS(C)(=O)=O` [MMS, Methyl Methane Sulphonate], the “growth and size of the plant” value in [12] (ars27A mutant, 3 weeks) is reported as “strongly inhibited”; in data set [12] (wild type, same concentrations), “not affecting”.
`O=C(O)c1ccccn1` [picolinic acid, 2-pyridine carboxylic acid]: in data set [1], the “removal of zinc (radioactive Zn65) from CCCC zinc finger of MPS-1” value is given as “remove radioactive Zn65 from MPS-1; also recorded: remove zinc” and the “zinc dependent binding of recombinant MPS-1 to DNA (gel shift assays)” value was “inhibit the zinc dependent binding of recombinant MPS-1 to DNA”. In addition, the “fate of viruses and host cells after treatment” value in data set [2] is “Death by apoptosis”. The “mitochondrial cytochrome c release” value in [11] (3 mM picolinic acid) is reported as “released cytochrome c”. Also, the “cell cycle arrest, Flow Microfluorometric Analysis of DNA” value in data set [13] (Kirsten sarcoma virus transformed cells) is reported as “G1 phase”. For the same compound, the “cytotoxicity in transformed cells” value in data set [13] (longer exposure/further incubation) was “cytotoxicity and cell death was observed in all transformed cells; also recorded: cell death by apoptosis was observed in all transformed cells”. Further, the “potency of prostaglandin E1 in elevating cyclic AMP” value in data set [14] was “two to five times more potent”. In [15], the “induction of marker defense genes PR-1, PR-2 and PDF1.2” value is on record as “all induced”. The “hypersensitive response (HR)” value in data set [16] is “elicit the hypersensitive response (HR)”. Besides, in data set [17], the “incorporation of iron into the cells” value is on record as “inhibits incorporation of iron into the cells” and the “removal of radioiron from the cells” value was “effectively removes radioiron from the cells”. In addition, in data set [18], the “toxicity to normal cells” value is “no toxic effects”. For the same compound, the “outcome of treatment of virus-infected ornamental plants” value in [7] is reported as “positive results”.
